“And” between values parts separate entries of the source, which are not always exact repeats. Identical values can stand only once. Toxic doses and inconclusive results are not listed. Rule as the data show it: active = T/C of 150% or more; inactive = T/C below 125%.
Test system: L1210 leukemia ip in BDF1 mice, survival T/C
Test: NCI In Vivo Anticancer Drug Screen. Data for tumor model L1210 Leukemia (intraperitoneal) in B6D2F1 (BDF1) mice
Conditions: endpoint: mean survival time, higher = longer survival
Summary of the method: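 Ratio derived from survival: compound-dosed mice over vehicle-dosed mice, all bearing a transplantable tumor.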

[1] = dose: 100.0 mg/kg/injection, schedule: Q04DX003 (ip), vehicle: Klucel (hydroxypropylcellulose) (HPC)
[2] = dose: 100.0 mg/kg/injection, schedule: Q04DX003 (ip), vehicle: saline
[3] = dose: 200.0 mg/kg/injection, schedule: Q04DX003 (ip), vehicle: saline
[4] = dose: 400.0 mg/kg/injection, schedule: Q04DX003 (ip), vehicle: saline
[5] = dose: 100.0 mg/kg/injection, schedule: Q01DX001 (ip), vehicle: saline
[6] = dose: 200.0 mg/kg/injection, schedule: Q01DX001 (ip), vehicle: saline
[7] = dose: 400.0 mg/kg/injection, schedule: Q01DX001 (ip), vehicle: saline
[8] = dose: 100.0 mg/kg/injection, schedule: Q04DX002 (ip), vehicle: Klucel (hydroxypropylcellulose) (HPC)
[9] = dose: 200.0 mg/kg/injection, schedule: Q04DX002 (ip), vehicle: Klucel (hydroxypropylcellulose) (HPC)
[10] = dose: 400.0 mg/kg/injection, schedule: Q04DX002 (ip), vehicle: Klucel (hydroxypropylcellulose) (HPC)
[11] = dose: 200.0 mg/kg/injection, schedule: Q04DX003 (ip), vehicle: Klucel (hydroxypropylcellulose) (HPC)
[12] = dose: 50.0 mg/kg/injection, schedule: Q01DX009 (ip), vehicle: saline
[13] = dose: 100.0 mg/kg/injection, schedule: Q01DX009 (ip), vehicle: saline
[14] = dose: 200.0 mg/kg/injection, schedule: Q01DX009 (ip), vehicle: saline
[15] = dose: 100.0 mg/kg/injection, schedule: Q01DX009 (ip), vehicle: saline with Tween-80
[16] = dose: 100.0 mg/kg/injection, schedule: Q01DX009 (ip), vehicle: saline sonified
[17] = dose: 200.0 mg/kg/injection, schedule: Q01DX009 (ip), vehicle: saline sonified
[18] = dose: 400.0 mg/kg/injection, schedule: Q01DX009 (ip), vehicle: saline sonified
[19] = dose: 400.0 mg/kg/injection, schedule: Q04DX003 (ip), vehicle: Klucel (hydroxypropylcellulose) (HPC)
[20] = dose: 100.0 mg/kg/injection, schedule: Q04DX003 (ip), vehicle: saline with Tween-80
[21] = dose: 200.0 mg/kg/injection, schedule: Q04DX003 (ip), vehicle: saline with Tween-80
[22] = dose: 400.0 mg/kg/injection, schedule: Q04DX003 (ip), vehicle: saline with Tween-80

Measured: T/C

C=C(c1ccccc1)[P+](c1ccccc1)(c1ccccc1)c1ccccc1
inactive: dose: 15.0 mg/kg/injection, schedule: Q01DX001 (ip), vehicle: saline 109 % of control

CN(CC(O)COc1ccccc1)CC1CCCO1 (centres undefined)
inactive: dose: 25.0 mg/kg/injection, schedule: Q04DX003 (ip), vehicle: Klucel (hydroxypropylcellulose) (HPC) 98 % of control | dose: 50.0 mg/kg/injection, schedule: Q04DX003 (ip), vehicle: Klucel (hydroxypropylcellulose) (HPC) 97 % of control | [1] 95 % of control and 98 % of control

CC[Si](Cl)(CC)CCCl
inactive: [2] 98 % of control | [3] 97 % of control | [4] 117 % of control

Cc1cc(C)c(O)c(CN(Cc2cc(C)cc(C)c2O)C2CCCCC2)c1
inactive: [5] 96 % of control | [6] 88 % of control | [7] 88 % of control

COC(OC)c1[nH]c(=S)[nH]c(=O)c1Cc1ccc(Br)cc1
inactive: [8] 97 % of control | [9] 94 % of control | [10] 105 % of control

Cc1ccc2[nH]c(CC#N)cc2c1
inactive: [8] 104 % of control | [9] 93 % of control | [10] 100 % of control

CC1=C2[C@H]3OC(=O)[C@@H](C)[C@@H]3CC[C@@]2(C)C=CC1=O
inactive: [5] 101 % of control | [1] 97 % of control | [6] 101 % of control | [11] 103 % of control

O=C1NCCc2c1[nH]c1ccccc21
inactive: [12] 90 % of control | [13] 91 % of control | [2] 101 % of control | [14] 86 % of control | [3] 93 % of control

O=C(CCCC(=O)NNC(=O)Nc1cccc(Cl)c1)NNC(=O)Nc1cccc(Cl)c1
inactive: dose: 50.0 mg/kg/injection, schedule: Q01DX001 (ip), vehicle: saline 96 % of control | [5] 106 % of control | [6] 106 % of control | [7] 93 % of control

COC(=O)C1OC1(C)c1ccc(C)cc1 (centres undefined)
inactive: [15] 92 % of control | dose: 400.0 mg/kg/injection, schedule: Q01DX009 (ip), vehicle: saline with Tween-80 106 % of control

COc1ccccc1NC(=O)CC(=O)c1ccc([N+](=O)[O-])cc1
inactive: [16] 103 % of control | [1] 101 % of control | [17] 100 % of control | [11] 105 % of control | [18] 103 % of control | [19] 98 % of control

CCCCOC(=S)Nc1ccc(S(=O)(=O)c2ccc(NC(=S)OCCCC)cc2)cc1
inactive: [5] 108 % of control | [6] 102 % of control | [7] 104 % of control

CC(O)C(C)(O)C(=O)O (centres undefined)
inactive: [13] 100 % of control | [2] 104 % of control | [14] 90 % of control | [3] 95 % of control | [4] 101 % of control

Nc1nc(=O)n(CCCSc2ccc([N+](=O)[O-])cc2)cc1-c1ccc(Cl)c(Cl)c1
inactive: [1] 90 % of control | [11] 90 % of control | [19] 88 % of control

c1ccc(-c2cc(-c3ccccc3)[s+]s2)cc1
inactive: dose: 50.0 mg/kg/injection, schedule: Q01DX009 (ip), vehicle: saline with Tween-80 100 % of control | [15] 90 % of control | [20] 113 % of control | [21] 92 % of control | [22] 88 % of control

O=P(c1ccco1)(c1ccco1)c1ccco1
inactive: dose: 25.0 mg/kg/injection, schedule: Q04DX003 (ip), vehicle: saline with Tween-80 101 % of control | dose: 50.0 mg/kg/injection, schedule: Q04DX003 (ip), vehicle: saline with Tween-80 95 % of control

Cc1ccc(Cl)cc1NC(=O)N1CCCCC1C (centres undefined)
inactive: dose: 50.0 mg/kg/injection, schedule: Q04DX002 (ip), vehicle: saline with Tween-80 106 % of control and 92 % of control | dose: 100.0 mg/kg/injection, schedule: Q01DX001 (ip), vehicle: saline with Tween-80 109 % of control | [15] 95 % of control and 96 % of control | [20] 97 % of control | dose: 200.0 mg/kg/injection, schedule: Q01DX001 (ip), vehicle: saline with Tween-80 103 % of control | dose: 200.0 mg/kg/injection, schedule: Q01DX009 (ip), vehicle: saline with Tween-80 94 % of control and 100 % of control | [21] 103 % of control | dose: 400.0 mg/kg/injection, schedule: Q01DX001 (ip), vehicle: saline with Tween-80 104 % of control | [22] 95 % of control

COc1cc2c(cc1OC)/C(=N\O)CCCC2
inactive: [16] 97 % of control | [1] 96 % of control | [17] 94 % of control | [11] 94 % of control | [18] 100 % of control | [19] 97 % of control

CCCCC(=O)N/N=C/c1ccccc1OC
inactive: [5] 102 % of control | [6] 104 % of control

CC(=O)c1ccc(O)cc1
inactive: [8] 114 % of control | [9] 96 % of control | [10] 96 % of control

NC(CCCCN=Cc1ccccc1O)C(=O)O (centres undefined)
inactive: [5] 95 % of control | [6] 92 % of control | [7] 91 % of control

O=S1(=O)CC2(C1)OCCO2
inactive: [8] 94 % of control | [9] 94 % of control

CN1CN(C)CN(C)C1
inactive: dose: 25.0 mg/kg/injection, schedule: Q01DX009 (ip), vehicle: saline 105 % of control | [12] 108 % of control | dose: 50.0 mg/kg/injection, schedule: Q04DX003 (ip), vehicle: saline 102 % of control | [5] 101 % of control | [13] 110 % of control | [2] 102 % of control and 107 % of control | [6] 92 % of control | [7] 97 % of control

CCOC(=O)c1[nH]c(C)c(C(=O)OC(C)(C)C)c1C
inactive: dose: 100.0 mg/kg/injection, schedule: Q01DX001 (ip), vehicle: Klucel (hydroxypropylcellulose) (HPC) 95 % of control | [1] 95 % of control | dose: 200.0 mg/kg/injection, schedule: Q01DX001 (ip), vehicle: Klucel (hydroxypropylcellulose) (HPC) 93 % of control | [11] 106 % of control | dose: 400.0 mg/kg/injection, schedule: Q01DX001 (ip), vehicle: Klucel (hydroxypropylcellulose) (HPC) 92 % of control | [19] 103 % of control

Reference: PubChem BioAssay AID248 (DTP/NCI, 2004)
